Measured values reported in patent publication US20080085889A1, “Amidomethyl-Substituted 1-(Carboxyalkyl) Cyclopentyl-Carbonylamino-Benzazepine-N-Acetic Acid Compounds, Process and Intermediate Products for Their Preparation and Pharmaceutical Compositions Containing Them” (SOLVAY PHARMACEUTICALS GmbH, priority 2003, published 2008).
Entries after “also recorded” stand apart in the source; their conditions may differ. Marks after values point to notes of the source that are not given here.

Test system: TUNEL positive cells in heart, liver and kidney
Test: Adriamycin toxicity: determination of anti-apoptotic activity (TUNEL staining)
Format: in vivo, Wistar rats
Conditions: for TUNEL positive cells, Heart / TUNEL positive cells, Kidney / TUNEL positive cells, Liver: ± SEM
Procedure: 2. Adriamycin Toxicity: Determination of Anti-Apoptotic Activity
Wistar rats, weighing 200-250 g, were anesthetized with chloral hydrate, 400 mg/kg, and Alzet osmotic minipumps (2 ML1), were implanted subcutaneously (=s.c.). The pumps had been filled with either vehicle or solution containing compounds of the invention at the appropriate concentration and primed prior to implantation. Animals subsequently received adriamycin at three equal daily doses of 5 mg/kg i.p. on days 1, 2 and 3. Rats were euthanized 5 days after the first injection of adriamycin and transcardially perfused with a solution containing 4% paraformaldehyde in phosphate buffer. The heart, liver and kidneys were subsequently removed and embedded in parafin.
TUNEL staining: For terminal deoxynucleotide transferase-mediated dUTP nick end-label (TUNEL) based histological analysis, organs were post-fixed for 5 days at 4° C. and paraffin-embedded. TUNEL staining was performed on 10 μm thick paraffin sections using the ApopTag Peroxidase kit (S 7100, Oncor Appligene, Heidelberg, Germany) according to the manufacturer's instructions. Briefly, after pretreatment with proteinase K and quenching of endogenous peroxidase, sections were incubated in equilibration buffer followed by working strength TdT enzyme (incorporating digoxigenin labeled dUTP nucleotides to free 3′-OH DNA termini), (1 hr, 37° C.). Sections were incubated in stop/wash buffer (30 min, 37° C.), then with anti-digoxigenin-peroxidase conjugate (30 min) followed by DAB substrate (Sigma, Deisenhofen, Germany) and lightly counterstained with methylgreen.
Wistar rats were administered adriamycin at the cumulative dose of 15 mg/kg i.p. The test substance of Example 4 was administered s.c. at the doses of 20, 50 or 100 mg/kg and day by means of Alzet osmotic minipumps over 5 days. Animals were euthanized and transcardially perfused 5 days after the first injection of adriamycin and the heart, kidney and liver were processed for TUNEL staining. Densities of TUNEL positive cells were determined as described in the methods. Results for each organ (heart, liver, kidney) were measured as mean densities of TUNEL positive cells ±SEM for the control groups and the different test groups (20, 50 or 100 mg/kg and day of test compound of Example 4) and listed in table 8 below.
Comparisons between groups were performed by means of Student's t test (**P<0.01; ***P<0.001 compared to vehicle treated rats).

[1] = adriamycin 15 mg/kg cumulative i.p. + 20 mg/kg and day s.c. minipump over 5 days
[2] = adriamycin 15 mg/kg cumulative i.p. + 50 mg/kg and day s.c. minipump over 5 days
[3] = adriamycin 15 mg/kg cumulative i.p. + 100 mg/kg and day s.c. minipump over 5 days

{(3S)-3-[({1-[(2″rel1″)-2-ethoxycarbonyl)-4-(isopropylamino)-4-oxobutyl]cyclopentyl}-carbonyl)amino]-2-oxo-2,3,4,5-tetrahydro-1H-1-benzazepin-1-yl}acetic acid [Example 4]
protection against adriamycin toxicity (densities of TUNEL positive cells) (20, 50 or 100 mg/kg and day s.c., heart, liver, kidney): significant protection against adriamycin toxicity in the heart, liver and kidney; also recorded: dose-dependently decreased the cytotoxic effect of adriamycin in all three organs
TUNEL positive cells, Heart [1]: 4.350 ± 0.248*** cells/mm3 × 102
TUNEL positive cells, Kidney [1]: 7.900 ± 0.306*** cells/mm3 × 102
TUNEL positive cells, Liver [1]: 8.750 ± 0.301** cells/mm3 × 102
TUNEL positive cells, Heart [2]: 3.700 ± 0.260*** cells/mm3 × 102
TUNEL positive cells, Kidney [2]: 7.850 ± 0.587** cells/mm3 × 102
TUNEL positive cells, Liver [2]: 8.250 ± 0.271*** cells/mm3 × 102
TUNEL positive cells, Heart [3]: 3.550 ± 0.157*** cells/mm3 × 102
TUNEL positive cells, Kidney [3]: 6.300 ± 0.260*** cells/mm3 × 102
TUNEL positive cells, Liver [3]: 7.450 ± 0.329*** cells/mm3 × 102
most effective dose against adriamycin toxicity (of 20, 50 or 100 mg/kg and day s.c.): 100 mg/kg and day
